Experimental data: ChEMBL document CHEMBL1240532, “Spiroindolones, a potent compound class for the treatment of malaria” (Science, 2010)
Activity calls are given as the source filed them. The calls are words filed in the database; no cut-off is given here.

Assays:
Plasmodium vivax = assay: Antimalarial activity against Plasmodium vivax isolates after 42 hrs; type: functional, organism-based
Plasmodium falciparum [1] = assay: Antimalarial activity against Plasmodium falciparum 3D7 after 48 hrs incubation by [3H]hypoxanthin incorporation assay
Plasmodium falciparum [2] = assay: Antimalarial activity against Plasmodium falciparum D6 after 48 hrs incubation by [3H]hypoxanthin incorporation assay
Plasmodium falciparum [3] = assay: Antimalarial activity against chloroquine and pyrimethamine-resistant Plasmodium falciparum V1/S after 48 hrs incubation by [3H]hypoxanthine incorporation assay
[4] = Cytotoxicity against human THP1 cells after 4 days by XTT assay; type: cell-based; conditions: THP-1 cells
[5] = Cytotoxicity against human HepG2 cells after 4 days by XTT assay; type: cell-based
[6] = target: Voltage-gated inwardly rectifying potassium channel KCNH2 (Homo sapiens, UniProt Q12809); assay: Inhibition of human ERG by patch clamp method
[7] = target: Alpha-2C adrenergic receptor (Homo sapiens, UniProt P18825); assay: Binding affinity to human recombinant alpha2c receptor
Androgen receptor = Androgen receptor (Homo sapiens, UniProt P10275); assay: Binding affinity to human recombinant androgen receptor
Androgen receptor, sequence (P10275 whole entry): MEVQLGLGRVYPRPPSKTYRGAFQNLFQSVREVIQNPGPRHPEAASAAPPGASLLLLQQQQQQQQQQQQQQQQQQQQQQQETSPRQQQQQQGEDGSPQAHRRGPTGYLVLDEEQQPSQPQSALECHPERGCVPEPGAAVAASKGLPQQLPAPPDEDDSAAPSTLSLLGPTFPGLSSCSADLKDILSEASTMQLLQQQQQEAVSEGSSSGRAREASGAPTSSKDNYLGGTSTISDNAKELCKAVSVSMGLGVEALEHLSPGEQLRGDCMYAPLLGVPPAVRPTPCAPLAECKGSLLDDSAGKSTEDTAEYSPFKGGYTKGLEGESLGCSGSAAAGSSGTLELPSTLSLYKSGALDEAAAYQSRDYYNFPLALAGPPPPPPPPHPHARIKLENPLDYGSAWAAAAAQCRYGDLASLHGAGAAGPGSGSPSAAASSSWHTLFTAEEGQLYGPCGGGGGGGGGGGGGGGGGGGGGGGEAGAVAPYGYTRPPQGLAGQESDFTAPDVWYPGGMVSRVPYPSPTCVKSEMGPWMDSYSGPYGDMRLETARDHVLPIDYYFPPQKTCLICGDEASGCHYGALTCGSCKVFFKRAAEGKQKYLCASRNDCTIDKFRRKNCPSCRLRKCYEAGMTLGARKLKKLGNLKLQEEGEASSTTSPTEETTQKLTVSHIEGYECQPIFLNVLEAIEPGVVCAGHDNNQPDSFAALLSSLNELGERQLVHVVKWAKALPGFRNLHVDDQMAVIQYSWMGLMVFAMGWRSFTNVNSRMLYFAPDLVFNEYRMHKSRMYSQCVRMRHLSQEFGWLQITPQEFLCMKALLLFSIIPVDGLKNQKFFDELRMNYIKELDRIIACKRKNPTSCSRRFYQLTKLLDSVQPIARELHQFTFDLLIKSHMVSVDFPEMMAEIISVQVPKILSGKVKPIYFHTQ

[8] = Binding affinity to rat benzodiazepine receptor
[9] = target: Voltage-gated L-type calcium channel (Rattus norvegicus, UniProt P22002+Q02485+P27732); assay: Binding affinity to rat L-type calcium channel
[10] = Binding affinity to rat N-type calcium channel
[11] = target: Prostaglandin G/H synthase 1 (Homo sapiens, UniProt P23219); assay: Binding affinity to human recombinant COX1
D(1A) dopamine receptor = D(1A) dopamine receptor (Homo sapiens, UniProt P21728); assay: Binding affinity to human recombinant dopamine D1 receptor
D(1A) dopamine receptor, sequence (P21728 whole entry): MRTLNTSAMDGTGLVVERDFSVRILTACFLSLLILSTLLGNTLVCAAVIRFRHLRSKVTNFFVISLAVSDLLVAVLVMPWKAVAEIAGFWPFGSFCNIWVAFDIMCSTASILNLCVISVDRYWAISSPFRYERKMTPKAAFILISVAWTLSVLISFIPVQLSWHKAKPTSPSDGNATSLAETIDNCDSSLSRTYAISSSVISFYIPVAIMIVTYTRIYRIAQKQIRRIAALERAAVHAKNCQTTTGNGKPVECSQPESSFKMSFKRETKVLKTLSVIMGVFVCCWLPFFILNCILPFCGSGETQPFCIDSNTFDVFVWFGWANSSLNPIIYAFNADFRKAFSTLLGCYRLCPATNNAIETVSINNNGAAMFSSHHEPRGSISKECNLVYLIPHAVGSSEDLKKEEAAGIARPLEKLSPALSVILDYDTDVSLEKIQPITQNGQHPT

[12] = target: Sodium-dependent dopamine transporter (Homo sapiens, UniProt Q01959); assay: Binding affinity to human recombinant dopamine transporter
Sodium-dependent dopamine transporter, sequence (Q01959 whole entry): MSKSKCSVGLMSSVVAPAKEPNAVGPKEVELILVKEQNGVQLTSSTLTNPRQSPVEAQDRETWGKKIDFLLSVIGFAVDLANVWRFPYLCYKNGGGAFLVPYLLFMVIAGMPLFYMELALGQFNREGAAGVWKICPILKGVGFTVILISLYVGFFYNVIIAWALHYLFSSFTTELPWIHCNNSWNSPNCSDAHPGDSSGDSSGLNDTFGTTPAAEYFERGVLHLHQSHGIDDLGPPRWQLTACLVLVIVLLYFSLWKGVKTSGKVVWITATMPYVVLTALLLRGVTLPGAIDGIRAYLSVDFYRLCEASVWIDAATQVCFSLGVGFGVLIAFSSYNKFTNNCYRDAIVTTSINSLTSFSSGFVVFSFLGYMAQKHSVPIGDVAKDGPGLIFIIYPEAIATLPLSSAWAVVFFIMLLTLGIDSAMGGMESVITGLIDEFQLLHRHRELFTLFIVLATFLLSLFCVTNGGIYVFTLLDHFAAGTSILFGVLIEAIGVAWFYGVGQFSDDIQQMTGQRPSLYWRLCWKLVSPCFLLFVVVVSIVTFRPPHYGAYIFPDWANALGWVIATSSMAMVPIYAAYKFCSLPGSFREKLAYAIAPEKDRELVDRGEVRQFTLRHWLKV

Estrogen receptor beta = Estrogen receptor beta (Homo sapiens, UniProt Q92731); assay: Binding affinity to human recombinant ERbeta
Glucagon receptor = Glucagon receptor (Homo sapiens, UniProt P47871); assay: Binding affinity to human recombinant glucagon receptor
Histamine H2 receptor = Histamine H2 receptor (Homo sapiens, UniProt P25021); assay: Binding affinity to human recombinant histamine H2 receptor
Histamine H2 receptor, sequence (P25021 whole entry): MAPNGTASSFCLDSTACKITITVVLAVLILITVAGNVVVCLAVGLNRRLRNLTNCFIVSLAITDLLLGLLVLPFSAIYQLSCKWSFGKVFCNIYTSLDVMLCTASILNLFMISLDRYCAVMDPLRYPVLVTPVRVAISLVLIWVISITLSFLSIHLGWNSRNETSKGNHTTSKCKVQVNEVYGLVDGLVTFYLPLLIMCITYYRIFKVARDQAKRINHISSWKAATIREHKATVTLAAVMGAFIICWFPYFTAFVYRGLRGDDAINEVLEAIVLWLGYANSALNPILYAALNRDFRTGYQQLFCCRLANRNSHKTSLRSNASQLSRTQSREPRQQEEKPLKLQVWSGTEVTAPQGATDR

Histamine H3 receptor = Histamine H3 receptor (Homo sapiens, UniProt Q9Y5N1); assay: Binding affinity to human recombinant histamine H3 receptor
Melanocortin receptor 4 = Melanocortin receptor 4 (Homo sapiens, UniProt P32245); assay: Binding affinity to human recombinant melanocortin MC4 receptor
Melanocortin receptor 4, sequence (P32245 whole entry): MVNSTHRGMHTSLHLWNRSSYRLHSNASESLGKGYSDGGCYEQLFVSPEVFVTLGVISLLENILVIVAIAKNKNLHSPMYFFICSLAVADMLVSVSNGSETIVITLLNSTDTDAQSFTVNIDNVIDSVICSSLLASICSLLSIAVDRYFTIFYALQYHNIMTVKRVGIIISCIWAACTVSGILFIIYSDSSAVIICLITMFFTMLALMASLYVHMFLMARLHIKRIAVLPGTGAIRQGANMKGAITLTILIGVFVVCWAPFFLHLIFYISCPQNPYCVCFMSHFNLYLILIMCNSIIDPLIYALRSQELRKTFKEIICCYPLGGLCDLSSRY

[13] = target: Amine oxidase [flavin-containing] A (Homo sapiens, UniProt P21397); assay: Binding affinity to human recombinant MAOM
[14] = target: Muscarinic acetylcholine receptor M1 (Homo sapiens, UniProt P11229); assay: Binding affinity to human recombinant muscarinic M1 receptor
[15] = target: Muscarinic acetylcholine receptor M2 (Homo sapiens, UniProt P08172); assay: Binding affinity to human recombinant muscarinic M2 receptor
Muscarinic acetylcholine receptor M2, sequence (P08172 whole entry): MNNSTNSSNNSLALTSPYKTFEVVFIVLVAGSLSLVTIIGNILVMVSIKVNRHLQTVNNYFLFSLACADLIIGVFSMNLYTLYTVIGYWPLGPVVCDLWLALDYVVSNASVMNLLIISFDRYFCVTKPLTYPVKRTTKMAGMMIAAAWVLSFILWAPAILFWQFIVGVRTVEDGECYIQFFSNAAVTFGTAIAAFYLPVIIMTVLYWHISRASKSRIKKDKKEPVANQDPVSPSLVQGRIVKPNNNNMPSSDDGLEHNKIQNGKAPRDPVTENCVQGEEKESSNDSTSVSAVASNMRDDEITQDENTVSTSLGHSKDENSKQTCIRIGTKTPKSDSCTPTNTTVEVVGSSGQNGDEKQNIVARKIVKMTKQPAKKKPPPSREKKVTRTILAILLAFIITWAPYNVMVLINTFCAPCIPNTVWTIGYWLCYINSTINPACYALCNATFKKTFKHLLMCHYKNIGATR

[16] = target: Muscarinic acetylcholine receptor M3 (Homo sapiens, UniProt P20309); assay: Binding affinity to human recombinant muscarinic M3 receptor
Muscarinic acetylcholine receptor M3, sequence (P20309 whole entry): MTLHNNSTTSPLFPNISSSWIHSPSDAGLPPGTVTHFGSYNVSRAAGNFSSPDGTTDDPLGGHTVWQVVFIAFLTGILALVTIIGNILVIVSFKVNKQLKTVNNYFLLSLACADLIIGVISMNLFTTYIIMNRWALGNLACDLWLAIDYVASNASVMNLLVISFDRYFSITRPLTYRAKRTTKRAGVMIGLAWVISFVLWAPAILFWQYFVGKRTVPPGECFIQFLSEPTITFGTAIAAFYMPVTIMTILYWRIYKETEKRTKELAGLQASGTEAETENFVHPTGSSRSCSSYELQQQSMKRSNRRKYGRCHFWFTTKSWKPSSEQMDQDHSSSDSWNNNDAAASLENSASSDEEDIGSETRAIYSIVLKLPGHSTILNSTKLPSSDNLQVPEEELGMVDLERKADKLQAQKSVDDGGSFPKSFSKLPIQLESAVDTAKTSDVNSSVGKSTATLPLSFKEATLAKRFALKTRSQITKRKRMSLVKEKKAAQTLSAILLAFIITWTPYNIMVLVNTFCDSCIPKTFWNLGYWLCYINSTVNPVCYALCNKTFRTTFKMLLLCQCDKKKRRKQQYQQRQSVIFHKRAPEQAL

[17] = target: Sodium-dependent noradrenaline transporter (Homo sapiens, UniProt P23975); assay: Binding affinity to human recombinant norepinephrine transporter
Sodium-dependent noradrenaline transporter, sequence (P23975 whole entry): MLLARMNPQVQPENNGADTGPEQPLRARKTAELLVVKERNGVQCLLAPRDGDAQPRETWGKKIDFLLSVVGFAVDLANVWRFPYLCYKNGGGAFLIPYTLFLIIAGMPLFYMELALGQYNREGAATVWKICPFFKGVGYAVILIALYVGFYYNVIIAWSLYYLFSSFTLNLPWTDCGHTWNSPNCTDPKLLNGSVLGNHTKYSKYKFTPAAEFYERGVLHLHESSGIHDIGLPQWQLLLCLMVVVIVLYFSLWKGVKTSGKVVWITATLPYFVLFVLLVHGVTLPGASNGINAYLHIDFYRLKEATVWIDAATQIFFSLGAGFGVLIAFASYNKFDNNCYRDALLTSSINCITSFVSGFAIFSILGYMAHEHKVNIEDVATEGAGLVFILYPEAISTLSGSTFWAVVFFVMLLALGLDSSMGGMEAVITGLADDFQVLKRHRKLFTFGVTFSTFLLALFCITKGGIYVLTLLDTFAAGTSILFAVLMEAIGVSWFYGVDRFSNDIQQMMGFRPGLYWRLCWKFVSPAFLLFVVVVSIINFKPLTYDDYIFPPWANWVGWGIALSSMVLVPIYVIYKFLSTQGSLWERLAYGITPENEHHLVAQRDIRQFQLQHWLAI

[18] = target: Kappa-type opioid receptor (Homo sapiens, UniProt P41145); assay: Binding affinity to human recombinant opiate kappa receptor
Kappa-type opioid receptor, sequence (P41145 whole entry): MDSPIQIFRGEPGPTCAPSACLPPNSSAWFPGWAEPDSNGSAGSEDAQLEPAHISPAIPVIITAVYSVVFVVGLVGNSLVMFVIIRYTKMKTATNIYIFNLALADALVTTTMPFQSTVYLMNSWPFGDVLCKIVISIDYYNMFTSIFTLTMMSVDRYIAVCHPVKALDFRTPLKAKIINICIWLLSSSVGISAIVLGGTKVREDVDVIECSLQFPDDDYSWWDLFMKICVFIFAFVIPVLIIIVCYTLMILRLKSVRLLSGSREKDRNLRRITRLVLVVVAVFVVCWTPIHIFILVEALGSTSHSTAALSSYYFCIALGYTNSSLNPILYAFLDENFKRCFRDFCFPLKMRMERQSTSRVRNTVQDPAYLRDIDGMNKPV

Mu-type opioid receptor = Mu-type opioid receptor (Homo sapiens, UniProt P35372); assay: Binding affinity to human recombinant opiate mu receptor
Phosphodiesterase 3 = Phosphodiesterase 3 (Homo sapiens, UniProt Q14432+Q13370); assay: Binding affinity to human recombinant PDE3; type: protein assay
[19] = target: 5-hydroxytryptamine receptor 2B (Homo sapiens, UniProt P41595); assay: Binding affinity to human recombinant serotonin 5-HT2B receptor
[20] = target: 5-hydroxytryptamine receptor 2C (Homo sapiens, UniProt P28335); assay: Binding affinity to human recombinant serotonin 5HT2C receptor
[21] = target: 5-hydroxytryptamine receptor 3A (Homo sapiens, UniProt P46098); assay: Binding affinity to human recombinant serotonin 5HT3 receptor
Vasopressin V2 receptor = Vasopressin V2 receptor (Homo sapiens, UniProt P30518); assay: Binding affinity to human recombinant vasopressin V2 receptor
[22] = Volume of distribution at steady state in CD1 mouse at 5.4 mg/kg, iv; type: ADME, organism-based; set-up: dose 5.4 mg/kg, route intravenous; conditions: in vivo, read-out: Vdss
[23] = Clearance in Wistar rat at 5 mg/kg, iv; type: ADME, organism-based; set-up: dose 5 mg/kg, route intravenous; conditions: in vivo
[24] = AUC (0 to infinity) in Wistar rat at 23.7 mg/kg, po; type: ADME, organism-based; set-up: time infinity, dose 23.7 mg/kg, route oral; conditions: plasma
[25] = Intrinsic clearance in rat liver microsome; type: ADME; conditions: liver microsomes
[26] = Intrinsic clearance in monkey liver microsome; type: ADME, Macaca mulatta; conditions: rhesus monkey, liver microsomes
Plasmodium berghei [27] = assay: Antimalarial activity against Plasmodium berghei GFP ANKA infected in NMRI mice (Mus musculus) assessed as reduction in parasitaemia at 30 mg/kg, perorally administered through 0.5% MCM/0.1%solutol HS15 formulation 24 hrs post infection for 3 days measured 96 hrs post infection; type: functional; set-up: scale not given: the % may be the effect or the level left; conditions: route oral
Plasmodium berghei [28] = assay: Antimalarial activity against Plasmodium berghei GFP ANKA infected in NMRI mice (Mus musculus) assessed as survival at 30 mg/kg, perorally administered through 0.5% MCM/0.1%solutol HS15 formulation 24 hrs post infection for 3 days measured 96 hrs post infection; type: functional; conditions: route oral
Plasmodium berghei [29] = assay: Antimalarial activity against Plasmodium berghei GFP ANKA infected in NMRI mice (Mus musculus) assessed as survival at 50 mg/kg, perorally administered through 0.5% MCM/0.1%solutol HS15 formulation 24 hrs post infection for 3 days measured 96 hrs post infection; type: functional; conditions: route oral
Plasmodium berghei [30] = assay: Antimalarial activity against Plasmodium berghei GFP ANKA infected in NMRI mice (Mus musculus) assessed as cure rate at 50 mg/kg, perorally administered through 0.5% MCM/0.1%solutol HS15 formulation 24 hrs post infection for 3 days measured on day 30 post infection; type: functional; conditions: route oral
Plasmodium falciparum [31] = type: functional, organism-based; conditions: Dd2, 72 h, read-out: IC50
Plasmodium falciparum [32] = assay: Antimalarial activity against Plasmodium falciparum isolates after 42 hrs; type: functional, organism-based
Mus musculus = assay: Toxicity in Plasmodium berghei GFP ANKA infected NMRI mice (Mus musculus) assessed as reduction in parasitemia dosed in ETPGS formulation 1 day postinfection measured 72 hrs post infection; type: organism-based; conditions: in vivo
in vivo [33] = conditions: CD1, mouse, po, 24.6 mg/kg
Description: Elimination half life in CD1 mouse at 24.6 mg/kg, po

in vivo [34] = conditions: Wistar, rat, iv, 5 mg/kg
Description: Elimination half life in Wistar rat at 5 mg/kg, iv

in vivo [35] = conditions: Wistar, rat, po, 23.7 mg/kg
Description: Elimination half life in Wistar rat at 23.7 mg/kg, po

Plasmodium falciparum [36] = assay: microbe, parasite or virus in culture; conditions: Dd2, 72 h
Plasmodium falciparum [37] = assay: microbe, parasite or virus in culture; conditions: Dd2, 72 h; remark: listed apart in the source
Plasmodium falciparum [38] = assay: microbe, parasite or virus in culture; conditions: Dd2, 72 h; remark: listed apart in the source
Description: Antimalarial activity against Plasmodium falciparum Dd2 containing attB site inserted in parasite genome and using EF1-alpha promoter driven expressing ATP4 D1247Y mutant after 72 hrs by SYBR green based fluorescence assay

Plasmodium falciparum [39] = assay: microbe, parasite or virus in culture; conditions: Dd2, 72 h; remark: listed apart in the source
Description: Antimalarial activity against Plasmodium falciparum Dd2 containing attB site inserted in parasite genome and using EF1-alpha promoter driven expressing ATP4 I398F/P990R mutant after 72 hrs by SYBR green based fluorescence assay

C[C@H]1Cc2c([nH]c3cc(Cl)c(F)cc23)[C@@]2(N1)C(=O)Nc1ccc(Cl)cc12 [CIPARGAMIN]
inhibition (Plasmodium vivax): Active | IC50 (Plasmodium falciparum [1]): 0.0007 µM | IC50 (Plasmodium falciparum [2]): 0.001 µM | IC50 (Plasmodium falciparum [3]): 0.0014 µM | CC50 at 96 h [4]: 14 µM | CC50 at 96 h [5]: > 25 µM | IC50 [6]: > 30 µM | IC50 [7]: > 10 µM | IC50 (Androgen receptor): > 30 µM | IC50 [8]: > 10 µM | IC50 [9]: > 10 µM | IC50 [10]: > 10 µM | IC50 [11]: > 30 µM | IC50 (D(1A) dopamine receptor): > 10 µM | IC50 [12]: > 10 µM | IC50 (Estrogen receptor beta): > 30 µM | IC50 (Glucagon receptor): > 30 µM | IC50 (Histamine H2 receptor): > 10 µM | IC50 (Histamine H3 receptor): > 10 µM | IC50 (Melanocortin receptor 4): > 30 µM | IC50 [13]: > 10 µM | IC50 [14]: > 10 µM | IC50 [15]: > 10 µM | IC50 [16]: > 10 µM | IC50 [17]: > 10 µM | IC50 [18]: > 10 µM | IC50 (Mu-type opioid receptor): > 10 µM | IC50 (Phosphodiesterase 3): > 10 µM | IC50 [19]: > 10 µM | IC50 [20]: > 10 µM | IC50 [21]: > 10 µM | IC50 (Vasopressin V2 receptor): > 30 µM | Vd [22]: 2.11 L/kg | clearance [23]: 3.48 mL/min/kg | AUC(0-inf) [24]: 524 µM·h | CLint scaled [25]: 5.8 mL/min/kg | CLint scaled [26]: 6.05 mL/min/kg | Activity (Plasmodium berghei [27]): 99.8% | Survival (Plasmodium berghei [28]): 29.1 days | Survival (Plasmodium berghei [29]): 30 days | Activity (Plasmodium berghei [30]): 100% | IC50 (Plasmodium falciparum [31]): 0.0032 µM | inhibition (Plasmodium falciparum [32]): Active | Activity (Mus musculus): Non-toxic | half-life (in vivo [33]): 10 h | half-life (in vivo [34]): 10.7 h | half-life (in vivo [35]): 27.7 h | IC50 (Plasmodium falciparum [36]): 0.0028 µM | IC50 (Plasmodium falciparum [37]): 0.0041 µM | IC50 (Plasmodium falciparum [38]): 0.00157 µM | IC50 (Plasmodium falciparum [39]): 0.00189 µM
